This is an account of results in PMC11488110 (Theranostics, 2024).

One series has as its system SH-SY5Y cells. Description: BACE1 expression (western blot) in SH-SY5Y cells. The following applies: 24 h. The series is classed as cell-based, human. On the procedure:
For the in vitro co-transfection assay, CV-1 monkey kidney cells were cultured in Dulbecco's modified Eagle's medium (DMEM) supplemented with 10% resin-charcoal-stripped fetal bovine serum (FBS), 100 U/mL penicillin, and 100 µg/mL streptomycin. To investigate the anti-inflammatory effects of 5a, BV-2 microglial cells were cultured in RPMI 1640 (Biowest) supplemented with 10% heat-inactivated FBS (Biowest), 2.05 mM L-glutamine (Gibco), and 100 U/mL penicillin/streptomycin (Gibco). Primary mouse astrocytes were isolated from postnatal day 1 C57BL/6N mouse pups. The cerebral cortices collected with the meninges removed were triturated by gentle pipetting and centrifuged. Primary astrocytes were resuspended and cultured in DMEM supplemented with 10% heat-inactivated FBS (Biowest), 10% heat-inactivated horse serum (Gibco), and 100 U/mL penicillin/streptomycin (Gibco). […]
Total proteins were extracted from cells or mouse brain tissues using radioimmunoprecipitation assay (RIPA) buffer (Sigma-Aldrich) containing a protease and phosphatase inhibitor cocktail (Roche Diagnostics). […] Protein concentrations were determined using Pierce® BCA Protein Assay Kit (Thermo Fisher Scientific). […] The western blot bands were analyzed using ImageJ software (NIH) and β-Actin or glyceraldehyde 3-phosphate dehydrogenase (GAPDH) were used as a loading control. […]
(A western blot detects proteins with antibodies after separation by electrophoresis.)

Series [1] can be described thus: Metabolic stability assay in liver microsomes. The series is classed as in vitro ADME, rat. Particulars: 1 μM, 30 min. As to the method:
(§1) The metabolic stability assay was performed by incubation of human and selected animal liver microsomes (dog, rat, and mouse) with the test compound at a final concentration of 1 μM, in the presence of 0.5 mg/ml microsomal protein and NADPH-regeneration system, in a total volume of 100 μL phosphate buffer 100 mM (pH 7.4) at 37 °C. The incubation was started by introducing the NADPH-regeneration system and terminated by adding 40 μL of ice-cold acetonitrile at 0- and 30 min. Precipitated proteins were removed by centrifugation at 10,000 g and 4 °C for 5 min. Aliquots of the supernatant were injected onto an LC-MS/MS system. Incubations terminated prior to addition of the NADPH-regeneration system (time point, 0 min) were used as standards, defined as 100%. Percent of the parent compound remaining was calculated by comparing peak areas.
(§2) Ta b l e S2 . CYP inhibition, microsomal stability, and hERG in hibition of 5a .
(§3) CYP inhibitiona Microsomal stabilityb
(§4) ( % of c ont rol ac ti vit y) (% of remaining compound) hERG inhibitionc (IC50, μ M) […]
(§5) aCytochrome P450 (CYP450) enzyme activity was measured by incubating CYP450 enzyme isotype-specific substrates and liver microsomes in the presence of the test compound (10 μM) for 15 min. […]
A general note: Liver microsomes are vesicles of endoplasmic reticulum, rich in cytochrome P450 enzymes.

Series [2] relates to C57BL/6N mice with LPS-induced neuroinflammation. Briefly: LPS-induced neuroinflammation mouse model. The format is in vivo.
For series [3], the system named is C57BL/6N mice with scopolamine-induced cognitive impairment. Briefly: Scopolamine-induced memory impairment mouse model. The series is classed as in vivo.
Series [4] is described as follows: Metabolic stability assay in liver microsomes. The series is classed as in vitro ADME, dog. The following applies: 1 μM, 30 min. As to the method: as §1, §2, §3, §4, §5
Another series addresses T1, hPPARδ (Homo sapiens, UniProt Q03181).
T1 construct: expressed in transfected cells; host or cells: CV-1 monkey kidney cells
T1 sequence (Q03181 1-441): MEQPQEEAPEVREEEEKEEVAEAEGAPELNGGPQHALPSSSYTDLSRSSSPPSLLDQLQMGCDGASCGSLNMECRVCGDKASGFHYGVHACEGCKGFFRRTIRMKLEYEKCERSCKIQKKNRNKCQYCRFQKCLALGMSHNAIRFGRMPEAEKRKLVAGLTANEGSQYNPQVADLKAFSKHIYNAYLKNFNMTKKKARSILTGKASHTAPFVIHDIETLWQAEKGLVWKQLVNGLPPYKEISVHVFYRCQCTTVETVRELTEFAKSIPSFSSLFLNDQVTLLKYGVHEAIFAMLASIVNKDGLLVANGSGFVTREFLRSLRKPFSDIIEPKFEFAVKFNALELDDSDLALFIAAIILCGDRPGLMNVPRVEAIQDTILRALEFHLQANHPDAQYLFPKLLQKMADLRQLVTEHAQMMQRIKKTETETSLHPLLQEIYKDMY
Description: In vitro co-transfection (PPRE-luciferase) assay in CV-1 cells, hPPARδ. The series is classed as cell-based.

The mark [5] stands for this setting: 30 mg/kg p.o. 10 days, LPS 0.3 mg/kg 7 days.
Where [6] appears, read: 30 mg/kg/day p.o., LPS 0.3 mg/kg/day i.p.
Setting [7] is: 30 mg/kg/day p.o. 5 days before scopolamine 1 mg/kg i.p.

What is called EC50 is the concentration that produces a half-maximal response. Turning to `Cc1cc(SCc2[se]c(-c3ccc(C(F)(F)F)cc3)nc2C)ccc1OCC(=O)O` [Compound 5a, {2-Methyl-4-[4-methyl-2-(4-trifluoromethyl-phenyl)-selenazol-5-yl-methylsulfanyl]-phenoxy}-acetic acid], the “BACE1 expression in SH-SY5Y cells” value with SH-SY5Y cells is listed as “dose-dependently reduced the expression of BACE1”. Also, the “Microsomal stability, Rat (% of remaining compound)” value in series [1] was 73.3 % of remaining compound. Also, in series [2] (setting [5]), the “CD86 expression in IBA1-positive microglia” value was “significantly reduced the expression”; the “GFAP and IBA1 immunoreactivity, hippocampus and cortex” value is recorded as “inhibited”; the “Plasma TNF-α and IL-6” value is “prevented the LPS-induced increases”; the “Spleen size and weight” value is “reduced the size and weight of spleens”. In series [2] (setting [6]), the “Open-field motor activity (traveled distance, immobility time)” value is recorded as “improved motor activity”; the “Open-field time spent in the center” value is on record as “spent more time in the center”; the “Passive avoidance step-through latency” value is “significantly prevented this decrease”; the “Y-maze number of arm entries” value is “increased the number of arm entries”. Further, the Y-maze spontaneous alternation result in series [2] (setting [6]) was “higher percentage of spontaneous alternations”. Further, in series [3] (setting [7]), the Y-maze spontaneous alternation entry was “prevented the decrease in alternation percentage” and the “Y-maze total number of arm entries” value is recorded as “without inducing any changes”. Besides, the “Passive avoidance step-through latency” value in series [3] (30 mg/kg/day p.o., scopolamine 1 mg/kg i.p.) is listed as “mitigated this effect”. In addition, the “Memory in Y-maze, passive avoidance and Morris water maze” value in series [3] (post-administration, 10 mg/kg p.o.) is “significantly restored the memory impairment”. Moreover, in series [3] (post-administration, 30 mg/kg p.o.), the “Memory in Y-maze, passive avoidance and Morris water maze” value is listed as “maximum efficacy”. The “Cognitive improvement compared with GW501516” value in series [3] (post-administration, same dose 30 mg/kg) is on record as “superior in vivo efficacy”. For the same molecule, the “Microsomal stability, Dog (% of remaining compound)” value in series [4] is reported as 91.3 % of remaining compound. Further, the EC50 at hPPARδ (co-transfection assay, CV-1 cells, 24 h, read-out: Potency (EC50) hPPARδ) came out at 700 pM. For the same molecule, the “Selectivity index hPPARα/hPPARδ” value at hPPARδ (ratio EC50(hPPARα)/EC50(hPPARδ)) is listed as above 14000. The “Selectivity index hPPARγ/hPPARδ” value at hPPARδ (ratio EC50(hPPARγ)/EC50(hPPARδ)) is on record as above 14000.
